The values below come from article PMC9050674, “Structure-based inhibitor design for reshaping bacterial morphology” (Communications Biology, 2022).

Broadly, the Kd is the free concentration of one partner at which half of the binding sites on the other are occupied at equilibrium, for simple one-to-one binding. The term IC50 denotes the concentration at which inhibition is half-maximal. Read a high IC50 as weaker potency. In general, Km refers to the concentration of substrate that gives half-maximal velocity. Broadly, the kcat is the number of substrate molecules converted per active site and unit of time at saturation.

Several values for one entry are separate records, joined by “and”; a condition that tells them apart may be missing. Equal values may be shown once. Some results are limits rather than exact numbers.

Data set [1] has as its target Pgp3 H247A variant. As to the kind of experiment: ITC with inactive Pgp3 H247A variant. The format is binding, C. jejuni. The conditions noted are these: ITC at 298 K, Pgp3 H247A variant (used to prevent turnover of substrate). The procedure: (§1) The gene encoding the amino-acid sequence of Glu21–Gln273 of Pgp3 from C. jejuni (strain ATCC 33560) was cloned into the expression vector pET-21a (Novagen) producing the recombinant wild-type Pgp3 protein with the C-terminal His6-tag ([…]). The protein expression and purification were conducted according to previously described methods with exception. The HiTrap chelating HP (GE Healthcare) column was washed with the lysis buffer containing 60 mM imidazole and the protein was eluted with a linear gradient from 100 to 500 mM imidazole. The protein was further purified by gel filtration on a HiLoad 16/60 Superdex 200 prep-grade column (GE Healthcare), which was previously equilibrated with 20 mM Tris-HCl pH 8.0 and 200 mM NaCl. The fractions containing the Pgp3 protein were pooled and concentrated to 15 mg mL^−1 for crystallization. The variants of Pgp3 (S169A, R195A, H216A, and H247A) were generated by site-directed mutagenesis using primer sets in Supplementary Table 1 and were purified as described for the WT Pgp3.
Using a micro-syringe, 2.5 μL of each inhibitor (2.25 mM) was added at intervals of 200 s to the Pgp3 solution in the cell with gentle stirring (125 rpm). The same ITC condition was applied to evaluate the KD values of BMK-S101 for each Pgp3 variant. All data were fitted to the single-binding-site model. Fitted curves were generated using GraphPad Prism 7. […]

In data set [2] the test system is C. jejuni ATCC 33560 WT. As to the kind of experiment: Cell morphology change monitored by TEM. The format is cell-based, Campylobacter jejuni. Particulars: 37 °C, 24 h; for minimum concentration causing morphological changes (helical to curved-rod): KL-L9P used for improved permeability. The text has this: Next, we investigated whether our inhibitors could transform C. jejuni from the helical- to curved-rod morphology on exposure to the inhibitors (Fig. 5). […] To investigate the effect of inhibitors on the morphology of C. jejuni cells, we exposed the cells to the inhibitors and checked whether the morphology could be altered.
Cell-morphology change of C. jejuni upon inhibitor treatment was monitored, as described previously with modifications. Briefly, overnight cultures of C. jejuni were harvested from MH agar plates and suspended in MH broth to approximately 1 × 10^6 colony-forming unit (CFU)/mL. A total of 500 μL of the diluted bacterial culture was added into each well of a 24-well plate with 5 μL of two-fold serial dilutions of inhibitor. For the control strain with no inhibitor, the same volume of dilution buffer (20 mM Tris-HCl pH 8.0 and 200 mM NaCl) was used. The plate was incubated under a micro-aerobic condition at 37 °C for 24 h in the static condition. After incubation, 10 μL of the bacterial cultures was placed on formvar/carbon-coated copper grids (200 mesh) and negatively stained with 2% uranyl acetate for 2 s.

Data set [3] has as its system C. jejuni (ATCC 33560). As to the kind of experiment: Drug accumulation assay (LC-MS). Particulars: for µM (concentration in LC-MS sample): single replicates (First, Second, Third), total volume 200 (r6-r19) or 100 (r23-r30); for µM (concentration in LC-MS sample) / nmol/1011 CFUs / Total nmol: source data Fig. 5b; for nmol/1011 CFUs / Total nmol: single replicates; for Total nmol: total volume 200 or 100. On the procedure:
The accumulation assay was adapted from two different methods[42],[43]. […] The culture was grown overnight at 42 °C under the micro-aerobic condition. The cells were harvested at 6000 g for 15 min and washed with 1 × PBS, followed by resuspension in pre-warmed 1 × PBS to ~10^10 CFU/mL. The cell suspension (1.2 mL) was dispensed into a 24-well plate. Each compound to be examined was added into each well (final concentration = 100 μM). […] After incubation with shaking at 37 °C for 20 min, OD600 of each sample was measured, and the cells were harvested at 6000 g for 10 min at 4 °C. The pellets were resuspended in 250 μL of water, followed by three cycles of Freeze-Thaw with a dry ice/ethanol bath and a 37 °C-heating block in order to extract the compounds from C. jejuni. The cells were pelleted at 13,000 g for 5 min at room temperature. The supernatants (220 μL) were transferred to new tubes. The pellets were resuspended in 100 μL of methanol with vigorous vortexing for 1 min, followed by pelleting as before. The supernatants (100 μL) were combined with the solutions previously collected. The residual cell debris were removed at 20,000 g for 15 min at room temperature. The supernatants (300 μL) were dried with Genevac™ miVac Centrifugal Concentrator at room temperature for 5 h. Finally, the samples were resuspended with appropriate solvents and analyzed by LC-MS.
The suspension was centrifuged and the supernatant was analyzed by LC-MS. LC-MS systems consists of a Bruker impact II ultra-high resolution Qq-time-of-flight mass spectrometer using Hystar 5.0 SR1 software with a Waters Acquity UPLC H-Class system equipped with a quaternary solvent manager, a sample manager-FTN, and a photodiode array detector. The Bruker electrospray ionization source was operated in the positive ion mode, except for BMK-S301 (in the negative ion mode). […] A four-step 10-min LC gradient was as follows: 3 min at 98:2; 3 min to 85:15; 0.1 min to 98:2; 3.9 min at 98:2 for BMK-S101, -S203, and -S301. The ratio of the mobile phases (A = 0.1% formic acid in water, B = 0.1% formic acid in ACN) is given as A:B in LC gradients. […] The quantification was done by integrating the peak areas from extracted-ion chromatograms of corresponding m/z values of each compound.

Data set [4] deals with Pgp3 WT (Campylobacter jejuni, UniProt Q0P921). As to the kind of experiment: Isothermal-titration calorimetry (ITC) with Pgp3 WT. The format is binding, C. jejuni. On the procedure:
as §1
Using a micro-syringe, 2.5 μL of each inhibitor (2.25 mM) was added at intervals of 200 s to the Pgp3 solution in the cell with gentle stirring (125 rpm). The same ITC condition was applied to evaluate the KD values of BMK-S101 for each Pgp3 variant. All data were fitted to the single-binding-site model. Fitted curves were generated using GraphPad Prism 7. Data are mean ± SEM from triplicate experiments and the ITC thermograms are representative of triplicate experiments.

For data set [5], the target named is T1, Pgp3 H216A (Campylobacter jejuni, UniProt Q0P921, H216A).
T1 sequence (Q0P921 21-273 H216A): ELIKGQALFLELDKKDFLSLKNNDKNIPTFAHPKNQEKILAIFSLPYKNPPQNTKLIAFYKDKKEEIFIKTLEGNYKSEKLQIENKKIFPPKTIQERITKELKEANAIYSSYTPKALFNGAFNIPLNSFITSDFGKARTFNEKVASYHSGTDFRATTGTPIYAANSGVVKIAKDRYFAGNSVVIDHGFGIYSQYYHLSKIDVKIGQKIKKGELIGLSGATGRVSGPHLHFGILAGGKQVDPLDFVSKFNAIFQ
As to the kind of experiment: ITC with Pgp3 H216A variant. Type of data set: binding, C. jejuni. The procedure: (§2) To evaluate the contributions of the three residues (Ser169, Arg195, and His216) to binding of BMK-S101, they were substituted to Ala, and the effect of each mutation was evaluated using ITC (Fig. 2d and Supplementary Fig. 1).
as §1, with “Pgp3. […]” for “Pgp3.”

Data set [6] addresses T2, Pgp3 S169A (Campylobacter jejuni, UniProt Q0P921, S169A).
T2 sequence (Q0P921 21-273 S169A): T1 sequence (Q0P921 21-273 H216A)
In words: ITC with Pgp3 S169A variant. Type of data set: binding, C. jejuni. On the procedure:
as §2
as §1, with “Pgp3. […]” for “Pgp3.”

Data set [7] addresses T3, Pgp3 R195A (Campylobacter jejuni, UniProt Q0P921, R195A).
T3 sequence (Q0P921 21-273 R195A): T1 sequence (Q0P921 21-273 H216A)
As to the kind of experiment: ITC with Pgp3 R195A variant. The format is binding, C. jejuni. On the procedure: as §2
as §1, with “Pgp3. […]” for “Pgp3.”

In data set [8] the target is Pgp3 (Campylobacter jejuni, UniProt Q0P921). As to the kind of experiment: biochemical. Also noted: species or system C. jejuni. On the procedure: Because DABCYL/FITC is a typical FRET quencher–fluorophore pair, an increase in fluorescent signals can be directly detected when it is processed by Pgp3 (Tang et al., 2013). The kinetic parameters (kcat = 0.0209 ± 0.0006 s^−1 and KM = 6.6 ± 0.7 µM) for the substrate were obtained by fitting the data to the Michaelis-Menten equation (Supplementary Fig. 8a).
The enzymatic assay for Pgp3 activity was determined using a fluorescein isothiocyanate (FITC) and 4′-([4′-(Dimethylamino)phenyl]-azo)-benzoic acid (DABCYL) pair for FRET. […] The excitation and emission spectra were set at 495 nm and 525 nm, respectively. Pgp3 (0.1 μM) in 20 mM HEPES pH 7.5, 200 mM NaCl, and 0.4 μM of zinc was used in this assay. The reaction was initiated by adding 3 μL of 0.015–2 mM substrate (final 1.56–200 μM) in the total volume of 30 μL of the reaction mixture. Initial velocities were calculated using slopes of fluorescence signal intensity in 3 min after the initiation of the reaction. In order to elucidate the inhibition mechanism of BMK-S301, initial velocities with various concentrations of substrates were measured in the presence of 40 μM BMK-S301. […] The same method was used for the determination of the IC50 values for inhibitors. Inhibitors in each concentration were pre-incubated with 0.1 μM of Pgp3 for 1 h on ice, and initial velocities were determined for 0.1, 10, 50, 100, 200, 500, and 1000 μM of each inhibitor in reaction with 10 μM of substrate. The IC50 values were calculated using GraphPad Prism 7.

Data set [9] addresses Pgp3 H247A variant (peptidoglycan peptidase 3, Campylobacter jejuni, Glu21-Gln273) (C. jejuni (strain ATCC 33560)). In words: ITC. (In ITC the heat of successive injections is recorded.)
[10] abbreviates: substrate turnover by Pgp3, Michaelis-Menten fit.

“Ac-L-Ala^1-γ-D-Glu^2-mDAP^3-D-Ala^4−D-Ala^5 [pentapeptide]”: the Kd in data set [1] turned out to be 6.8 ± 0.3 µM.

As to `CC(=O)N[C@@H](CCN(CC(=O)O)CC1CCCC1)C(=O)N[C@H](C)C(=O)NO` [BMK-S203], the “minimum concentration causing morphological changes (helical to curved-rod)” value in data set [2] is 25~50 μM. In addition, in data set [3] (100 μM compound, 37 °C, 20 min, LC-MS, mean), the “intracellular concentration (accumulation)” value turned out to be 0.3 ± 0.1 nmole/10^11 CFU. In addition, in [3], the “µM (concentration in LC-MS sample)” value is 0.0294 µM and 0.0222 µM and 0.0293 µM; the “nmol/1011 CFUs” value was 0.333 nmol/1011 CFUs and 0.240 nmol/1011 CFUs and 0.327 nmol/1011 CFUs; the Total nmol is 0.00294 nmol and 0.00222 nmol and 0.00293 nmol. The equilibrium dissociation constant (Kd) in data set [4] stood at 1.8 ± 0.4 µM.

Consider `CC(=O)N[C@@H](CCNCC(=O)O)C(=O)N[C@H](C)C(=O)NO` [BMK-S202], for which, in [2], the “minimum concentration causing morphological changes (helical to curved-rod)” value was 25~50 μM. Further, in data set [4], the Kd was found to be 6.6 ± 0.3 µM.

Regarding `CC(=O)N[C@@H](CCC[C@@H](NC(C)=O)C(=O)O)C(=O)N[C@H](C)C(=O)NO` [BMK-S101], the “concentrations without any detectable changes in the cell shape” value in data set [2] is at most 156 µM. Moreover, in [2], the “minimum concentration causing morphological changes (helical to curved-rod)” value was above 313 μM. Also, the dissociation constant Kd in [5] came to 10.4 ± 2.6 µM; in data set [6] it was 28.3 ± 5.8 µM; in data set [7] it was 17.8 ± 0.8 µM; in data set [4] it was 2.3 ± 0.8 µM.

As for `NS(=O)(=O)c1ccc(-c2ccc(CC(=O)NO)cc2)cc1` [BMK-S303], the concentration for half-maximal inhibition (IC50) in data set [8] was 22.3 ± 1.5 µM. For the same compound, the “minimum concentration causing morphological changes (helical to curved-rod)” value in data set [2] is recorded as 400 μM. The compound also returned a dissociation constant (Kd) in [4] of 1.4 ± 0.4 µM.

On to `CC(=O)N[C@@H](CCN(CC(=O)O)Cc1ccccc1)C(=O)N[C@H](C)C(=O)NO` [BMK-S201], for which, in data set [3], the “µM (concentration in LC-MS sample)” value was 0.024 µM and 0.040 µM and 0.056 µM; the “nmol/1011 CFUs” value is 0.60 nmol/1011 CFUs and 0.97 nmol/1011 CFUs and 1.37 nmol/1011 CFUs; the Total nmol is 0.0048 nmol and 0.0079 nmol and 0.0112 nmol. Moreover, in data set [4], the Kd came to 1.3 ± 0.1 µM.

Regarding “pentapeptide (Ac-L-Ala1-γ-D-Glu2-mDAP3-D-Ala4-D-Ala5), peptidoglycan stem peptide”, the Kd in [9] came out at 6.8 µM.

Turning to “FITC-L-Ala^1-D-Glu^2-mDAP^3-D-Ala^4-L-Lys^5-DABCYL [FRET substrate, reference compound]”, in data set [8] (setting [10]), the Michaelis constant (Km) was found to be 6.6 ± 0.7 µM and the turnover number (kcat) turned out to be 0.0209 ± 0.0006 s⁻¹.

Regarding `NS(=O)(=O)c1ccc(CC(=O)NCC(=O)NO)cc1` [BMK-S302], the IC50 in data set [8] is 244.6 ± 1.4 µM. In addition, the “minimum concentration causing morphological changes (helical to curved-rod)” value in data set [2] is 100 μM. In data set [4], binding was put at a Kd of 9.9 ± 1.5 µM.
